Patent US6204283A, “Parasitic mite control on beneficial insects” (American Cyanamid Company, priority 1999, dated 2001)

Assays:
Type in all cases: in vivo
[1] = test system: Varroa jacobsoni (Varroa mites); experiment: Efficacy against Varroa jacobsoni parasites on infested honeybees, topical application (mite mortality); conditions: 120 h, topical 1 μl acetone solution, 5 days, 31° C.
Procedure: (§1) Evaluation Of The Efficacy Of Test Compound Against Varroa jacobsoni Parasites
(§2) In this evaluation, honeybees (Apis mellifera) taken from hives which are 70-90% infested with Varroa jacobsoni (Varroa mites) are chilled to immobilize the bees. A 1 μl droplet of an acetone solution of tebufenpyrad is applied to the dorsal abdomen of each bee. Control bees receive 1 μl droplet of acetone. A total of 50-52 bees are treated for each dose rate tested. Treatment dose rates are based upon the LD50 (dose rate required to obtain 50% mortality of healthy uninfected bees) of tebufenypyrad and are set at 10% of the LD50 and subsequent 10-fold dilution thereof. The treated bees are placed in an incubator at 31° C. in the dark and fed 50% sugar water ad libitum for 5 days. After incubation, the bees are examined for mortality and mite infestation. The results are shown in Table I below, as % mortality of the total of the bees and the total of the mites.

[2] = test system: honeybees (Apis mellifera); experiment: Mortality of the Varroa-infested honeybees, topical application; conditions: 120 h, topical 1 μl acetone solution, 5 days, 31° C., read-out: % Mortality, Bees
Procedure: as §1, §2

[3] = test system: Acarapis woodi (trachea mites); experiment: Efficacy against Acarapis woodi parasites on treated glass slides; conditions: slides dipped in 500 ppm acetone solution
Excerpt: Evaluation Of The Efficacy Of Test Compound Against Acarapis woodi Parasites
In this evaluation, honeybees (Apis mellifera) which are infested with Acarapis woodi (trachea mites) are dissected to remove the infested tracheae. Glass microscope slides are dipped into acetone solutions of tebufenpyrad (500 ppm)and the acetone is allowed to evaporate. Infested tracheae are placed directly on the treated slides. The mites are removed from the tracheae by dissection and forced to walk across the treated area. The elapsed time is recorded for 100% mortality, i.e. no movement is observed upon agitation.

[4] = test system: Varroa jacobsoni; experiment: Field evaluation against Varroa jacobsoni parasites in infested beehives (stickyboard count); conditions: two strips containing 18% tebufenpyrad in 60:40 beeswax:lard, 24 hours after treatment
Excerpt: Field Evaluation Of The Efficiacy Of Test Compound Against Varroa jacobsoni Parasites
In this evaluation, two Varroa jacobsoni infested beehives are monitored for the extent of infestation using stickyboards inserted at the bottom of the hive. Data are presented as the number of mites trapped on the stickyboard per day. Two strips (2.5×17 cm) containing 18% tebufenpyrad dissolved in a 60:40 beeswax:lard (Crisco®) mixture are inserted into each hive brood chamber as per standard practice. One day after treatment, the stickyboards are removed and the dead mites counted.

## CCc1nn(C)c(C(=O)NCc2ccc(C(C)(C)C)cc2)c1Cl [Tebufenpyrad, N-(4-t-butylbenzyl)-4-chloro-3-ethyl-1-methylpyrazole-5-carboxamide]
[1]; 0.006 μg/bee
  mortality at 0.006 µg/bee: 58%
[1]; 0.06 μg/bee
  mortality at 0.06 µg/bee: 44%
[1]; 0.6 μg/bee
  mortality at 0.6 µg/bee: 92%
[2]; 0.006 μg/bee
  mortality at 0.006 µg/bee: 24%
[2]; 0.06 μg/bee
  mortality at 0.06 µg/bee: 25%
[2]; 0.6 μg/bee
  mortality at 0.6 µg/bee: 28%
[3]; Rep. 1, 7 mites
  Time required to achieve 100% mortality: 8.5 min
[3]; Rep. 2, 10 mites
  Time required to achieve 100% mortality: 8 min
[3]; Rep. 3, 7 mites
  Time required to achieve 100% mortality: 8 min
[4]; Hive 1, pretreatment 101 mites/day
  Treatment mites/day (dead mites trapped on stickyboard): 1777 mites/day
[4]; Hive 2, pretreatment 66 mites/day
  Treatment mites/day (dead mites trapped on stickyboard): 1080 mites/day
